In ChEMBL document CHEMBL3045803, “Preparation and root growth-inhibitory activity of N-substituted 2-(2-chloroacetamido)-3-(furan-2-yl)propanamides” (2005):

Tested on: Brassica rapa subsp. oleifera
Assay: Inhibition of Brassica rapa subsp. oleifera root growth assessed as reduction of root length at 5 x 10^-5 M after 7 days by germination assay relative to control
Type: functional
Details: 168 h

| Structure (SMILES) | inhibition at 50 µM [%] |
| --- | --- |
| Cc1cnc(NC(=O)C(Cc2ccco2)NC(=O)CCl)s1 (centres undefined) | 20 |
| O=C(CCl)NC(Cc1ccco1)C(=O)Nc1nc2ccccc2s1 (centres undefined) | 58 |
| O=C(CCl)NC(Cc1ccco1)C(=O)Nc1nc2c(Cl)cccc2s1 (centres undefined) | 42 |
| CCOc1ccc2nc(NC(=O)C(Cc3ccco3)NC(=O)CCl)sc2c1 (centres undefined) | 34 |
| O=C(CCl)NC(Cc1ccco1)C(=O)Nc1ccccc1 (centres undefined) | 52 |
| O=C(CCl)NC(Cc1ccco1)C(=O)Nc1cccc(F)c1 (centres undefined) | 33 |
| O=C(CCl)NC(Cc1ccco1)C(=O)Nc1ccc(F)cc1 (centres undefined) | 37 |
| O=C(CCl)NC(Cc1ccco1)C(=O)Nc1cccc(Cl)c1 (centres undefined) | 30 |
| O=C(CCl)NC(Cc1ccco1)C(=O)Nc1ccc(Cl)cc1 (centres undefined) | 19 |
| O=C(CCl)NC(Cc1ccco1)C(=O)Nc1cccc(Br)c1 (centres undefined) | 42 |
| O=C(CCl)NC(Cc1ccco1)C(=O)Nc1ccc(Br)cc1 (centres undefined) | 29 |
| CCc1ccccc1NC(=O)C(Cc1ccco1)NC(=O)CCl (centres undefined) | 20 |
| CCc1cccc(NC(=O)C(Cc2ccco2)NC(=O)CCl)c1 (centres undefined) | 35 |
| CCc1ccc(NC(=O)C(Cc2ccco2)NC(=O)CCl)cc1 (centres undefined) | 41 |
| CCc1cccc(CC)c1NC(=O)C(Cc1ccco1)NC(=O)CCl (centres undefined) | 76 |
| CCc1cccc(C)c1NC(=O)C(Cc1ccco1)NC(=O)CCl (centres undefined) | 67 |
| Cc1cccc(C)c1NC(=O)C(Cc1ccco1)NC(=O)CCl (centres undefined) | 62 |
| O=C(CCl)NC(Cc1ccco1)C(=O)Nc1nccs1 (centres undefined) | 57 |
| O=C(CCl)NC(Cc1ccco1)C(=O)Nc1ncc(Br)s1 (centres undefined) | 69 |
| O=C(CCl)NC(Cc1ccco1)C(=O)Nc1ncc([N+](=O)[O-])s1 (centres undefined) | 37 |
| Cc1csc(NC(=O)C(Cc2ccco2)NC(=O)CCl)n1 (centres undefined) | 56 |
| Cc1nc(NC(=O)C(Cc2ccco2)NC(=O)CCl)sc1C (centres undefined) | 25 |
| O=C(CCl)NC(Cc1ccco1)C(=O)Nc1nc(-c2ccc(Cl)cc2)cs1 (centres undefined) | 52 |
| O=C(O)COc1ccc(Cl)cc1Cl [2,4-DICHLOROPHENOXYACETIC ACID] | 97 |
